Laboratory results from US12679878B2, “CRF2 receptor agonists and their use in therapy” (SANOFI, priority 2020, dated 2026).
Read-outs that look alike come from different tables or passages of the source. Starred links: 1 amine or outer side, 2 acyl side, 3 side chain; linkers in the order of their positions; H or OH if unused. Non-standard residues stand in square brackets, D forms with d. Residues, ends and D or L forms follow the SMILES beside them. Groups on a side chain read outwards from the residue. *: point of attachment. C18 diacid = O=C(O)CCCCCCCCCCCCCCCCC(=O)*; γGlu = O=C(O)[C@H](CCC(=O)[*:2])N[*:1]; AEEA = NCCOCCOCC(=O)O; Aib = CC(C)(N)C(=O)O

Assays:
human CRF2α receptor = target: T1, human CRF2α receptor (Homo sapiens, UniProt Q13324); experiment: cAMP agonism at human CRF2 α receptor in TeloHEAC cells (Example 7); assay type: cell-based; conditions: cAMP HTRF, TeloHEAC cells stably expressing human CRF2 α
T1 construct: expressed in transfected cells; host or cells: TeloHEAC
T1 sequence (Q13324 1-411): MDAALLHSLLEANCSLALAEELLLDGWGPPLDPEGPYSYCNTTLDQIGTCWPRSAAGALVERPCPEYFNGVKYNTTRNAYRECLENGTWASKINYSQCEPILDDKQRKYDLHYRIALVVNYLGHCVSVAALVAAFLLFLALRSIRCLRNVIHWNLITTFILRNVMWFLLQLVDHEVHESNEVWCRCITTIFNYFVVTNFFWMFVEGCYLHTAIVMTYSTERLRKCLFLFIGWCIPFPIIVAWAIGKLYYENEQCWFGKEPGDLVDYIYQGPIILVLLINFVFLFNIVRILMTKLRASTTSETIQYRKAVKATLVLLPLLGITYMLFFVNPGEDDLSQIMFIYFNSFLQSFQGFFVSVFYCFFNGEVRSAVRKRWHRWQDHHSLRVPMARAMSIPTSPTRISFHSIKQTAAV
Method in brief: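 HTRF ratio 665/620 nm, read 1 h after lysis reagents, reports cAMP. Cells: thawed stocks, 2000/well, 30 min RT with compound in HBSS, 20 mM HEPES, 0 or 0.1% HSA, 2 mM IBMX. Activity normalised to UCN2 1000 nM = 100%; EC50 from half-maximal activation.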

CRF1R receptor = target: T2, CRF1R receptor (Homo sapiens, UniProt P34998); experiment: cAMP activity at anti-target CRF1R, CHO-K1 cell line clone 2 (Example 19.10); assay type: cell-based; conditions: CRF1R CHO-K1 clone 2; for EC50: 0% HSA, read-out: EC50 [nM] 0% HSA; for Emax: 100% = Sauvagine at 100 nM
T2 construct: host or cells: CHO-K1 clone 2
T2 sequence (P34998 24-415): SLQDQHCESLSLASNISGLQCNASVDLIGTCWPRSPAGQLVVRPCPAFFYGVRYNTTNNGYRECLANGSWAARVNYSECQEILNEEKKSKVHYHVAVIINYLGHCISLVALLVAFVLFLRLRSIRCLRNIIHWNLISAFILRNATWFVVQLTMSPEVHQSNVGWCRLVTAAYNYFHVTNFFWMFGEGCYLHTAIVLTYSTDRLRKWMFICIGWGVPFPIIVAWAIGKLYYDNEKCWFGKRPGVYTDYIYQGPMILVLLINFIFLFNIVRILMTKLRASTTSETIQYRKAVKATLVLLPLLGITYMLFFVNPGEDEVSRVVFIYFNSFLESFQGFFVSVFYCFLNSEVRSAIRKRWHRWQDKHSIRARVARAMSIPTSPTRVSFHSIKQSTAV
Method in brief: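 The cAMP read-out used the same protocol as the previous assay, except that Sauvagine at 100 nM set the 100% activation control. Cells were CHO-K1 clone 2 overexpressing CRF1R, cultured in F12 medium with 10% FBS and G418 and stored frozen until use.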

[1] = 0% HSA, read-out: EC50 [nM], 0% HSA
[2] = 0.1% HSA, read-out: EC50 [nM], 0.1% HSA

| EC50 (human CRF2α receptor; [1]) [nM] | EC50 (human CRF2α receptor; [2]) [nM] | EC50 (CRF1R receptor) [nM] | Emax (CRF1R receptor) [%] | SMILES |
| --- | --- | --- | --- | --- |
| 0.11 | 4.37 | > 100 | -2.5 | CC[C@H](C)[C@H](N)C(=O)N[C@H](C(=O)N[C@@H](CC(C)C)C(=O)N[C@@H](CO)C(=O)N[C@@H](CC(C)C)C(=O)N[C@@H](CC(=O)O)C(=O)N[C@H](C(=O)N1CCC[C@H]1C(=O)N[C@H](C(=O)N[C@@H](CCCCN)C(=O)N[C@@H](CC(C)C)C(=O)N[C@@H](CCCCNC(=O)COCCOCCNC(=O)COCCOCCNC(=O)CC[C@H](NC(=O)CCCCCCCCCCCCCCCCC(=O)O)C(=O)O)C(=O)N[C@@H](CCC(N)=O)C(=O)N[C@H](C(=O)N[C@@H](CC(C)C)C(=O)N[C@@H](CC(C)C)C(=O)N[C@@H](CCCCN)C(=O)N[C@@H](CCC(N)=O)C(=O)N[C@@H](C)C(=O)N[C@@H](CCCNC(=N)N)C(=O)N[C@@H](CCC(N)=O)C(=O)N[C@@H](CCCCN)C(=O)NC(C)(C)C(=O)N[C@@H](CCC(N)=O)C(=O)N[C@@H](CCCNC(=N)N)C(=O)N[C@@H](C)C(=O)N[C@@H](CCC(N)=O)C(=O)N[C@@H](C)C(=O)N[C@@H](CCC(=O)O)C(=O)N[C@@H](CCCCN)C(=O)N[C@@H](CC(N)=O)C(=O)N[C@@H](CCCCN)C(=O)N[C@@H](CCCNC(=N)N)C(=O)N[C@H](C(=O)N[C@@H](CC(C)C)C(=O)N[C@@H](CCC(=O)O)C(=O)N[C@@H](CCCNC(=N)N)C(=O)N[C@H](C(N)=O)C(C)C)[C@@H](C)CC)[C@@H](C)CC)[C@@H](C)CC)C(C)C)C(C)C [compound 124] (H-IVLSLDVPIKLK([AEEA-AEEA-γGlu-C18 diacid])QILLKQARQK[Aib]QRAQAEKNKRILERV-NH2; N-terminus assumed) |
| 0.47 | 19.9 | > 100 | 17.7 | CC[C@H](C)[C@H](N)C(=O)N[C@H](C(=O)N[C@@H](CC(C)C)C(=O)N[C@@H](CO)C(=O)N[C@@H](CC(C)C)C(=O)N[C@@H](CC(=O)O)C(=O)N[C@H](C(=O)N1CCC[C@H]1C(=O)N[C@H](C(=O)N[C@@H](CCCCN)C(=O)N[C@@H](CC(C)C)C(=O)N[C@@H](CCCCNC(=O)COCCOCCNC(=O)COCCOCCNC(=O)CC[C@H](NC(=O)CCCCCCCCCCCCCCCCC(=O)O)C(=O)O)C(=O)N[C@@H](CCC(N)=O)C(=O)N[C@H](C(=O)N[C@@H](CC(C)C)C(=O)N[C@@H](CC(C)C)C(=O)N[C@@H](CCC(=O)O)C(=O)N[C@@H](CCC(N)=O)C(=O)N[C@@H](C)C(=O)N[C@@H](CCCNC(=N)N)C(=O)N[C@@H](CCC(N)=O)C(=O)N[C@@H](CCCCN)C(=O)NC(C)(C)C(=O)N[C@@H](CCC(N)=O)C(=O)N[C@@H](CCCNC(=N)N)C(=O)N[C@@H](CCC(=O)O)C(=O)N[C@@H](CCC(N)=O)C(=O)N[C@@H](C)C(=O)N[C@@H](CCC(=O)O)C(=O)N[C@@H](CCCCN)C(=O)N[C@@H](CC(N)=O)C(=O)N[C@@H](CCCCN)C(=O)N[C@@H](CCCNC(=N)N)C(=O)N[C@H](C(=O)N[C@@H](CC(C)C)C(=O)N[C@@H](CCC(=O)O)C(=O)N[C@@H](CCCNC(=N)N)C(=O)N[C@H](C(N)=O)C(C)C)[C@@H](C)CC)[C@@H](C)CC)[C@@H](C)CC)C(C)C)C(C)C [compound 125] (H-IVLSLDVPIKLK([AEEA-AEEA-γGlu-C18 diacid])QILLEQARQK[Aib]QREQAEKNKRILERV-NH2; N-terminus assumed) |
| 0.22 | 5.59 | > 100 | 36.5 | CC[C@H](C)[C@H](N)C(=O)N[C@H](C(=O)N[C@@H](CC(C)C)C(=O)N[C@@H](CO)C(=O)N[C@@H](CC(C)C)C(=O)N[C@@H](CC(=O)O)C(=O)N[C@@H](C(=O)N1CCC[C@H]1C(=O)N[C@H](C(=O)N[C@@H](CCCCN)C(=O)N[C@@H](CC(C)C)C(=O)N[C@@H](CCCCNC(=O)COCCOCCNC(=O)COCCOCCNC(=O)CC[C@H](NC(=O)CCCCCCCCCCCCCCCCC(=O)O)C(=O)O)C(=O)N[C@@H](CCC(N)=O)C(=O)N[C@H](C(=O)N[C@@H](CC(C)C)C(=O)N[C@@H](CC(C)C)C(=O)N[C@@H](CCC(=O)O)C(=O)N[C@@H](CCC(N)=O)C(=O)N[C@@H](C)C(=O)N[C@@H](CCCCN)C(=O)N[C@@H](CCC(N)=O)C(=O)N[C@@H](CCCCN)C(=O)NC(C)(C)C(=O)N[C@@H](CCC(N)=O)C(=O)N[C@@H](CCCNC(=N)N)C(=O)N[C@@H](C)C(=O)N[C@@H](CCC(N)=O)C(=O)N[C@@H](C)C(=O)N[C@@H](CCC(=O)O)C(=O)N[C@@H](CCCCN)C(=O)N[C@@H](CC(N)=O)C(=O)N[C@@H](CCCCN)C(=O)N[C@@H](CCCNC(=N)N)C(=O)N[C@H](C(=O)N[C@@H](CC(C)C)C(=O)N[C@@H](CCC(=O)O)C(=O)N[C@@H](CCCNC(=N)N)C(=O)N[C@H](C(N)=O)C(C)C)[C@@H](C)CC)[C@@H](C)CC)[C@@H](C)CC)C(C)C)C(C)C [compound 126] (H-IVLSLD[dV]PIKLK([AEEA-AEEA-γGlu-C18 diacid])QILLEQAKQK[Aib]QRAQAEKNKRILERV-NH2; N-terminus assumed) |
| 0.07 | 3.44 | > 100 | -8.6 | CC[C@H](C)[C@H](N)C(=O)N[C@H](C(=O)N[C@@H](CC(C)C)C(=O)N[C@@H](CO)C(=O)N[C@@H](CC(C)C)C(=O)N[C@@H](CC(=O)O)C(=O)N[C@@H](C(=O)N1CCC[C@H]1C(=O)N[C@H](C(=O)N[C@@H](CCCCN)C(=O)N[C@@H](CC(C)C)C(=O)N[C@@H](CCCCNC(=O)COCCOCCNC(=O)COCCOCCNC(=O)CC[C@H](NC(=O)CCCCCCCCCCCCCCCCC(=O)O)C(=O)O)C(=O)N[C@@H](CCC(N)=O)C(=O)N[C@H](C(=O)N[C@@H](CC(C)C)C(=O)N[C@@H](CC(C)C)C(=O)N[C@@H](CCCCN)C(=O)N[C@@H](CCC(N)=O)C(=O)N[C@@H](CCC(=O)O)C(=O)N[C@@H](CCCNC(=N)N)C(=O)N[C@@H](CCC(N)=O)C(=O)N[C@@H](CCCCN)C(=O)NC(C)(C)C(=O)N[C@@H](CCC(N)=O)C(=O)N[C@@H](CCCNC(=N)N)C(=O)N[C@@H](CCC(=O)O)C(=O)N[C@@H](CCCCN)C(=O)N[C@@H](C)C(=O)N[C@@H](CCC(=O)O)C(=O)N[C@@H](CCCCN)C(=O)N[C@@H](CC(N)=O)C(=O)N[C@@H](CCCCN)C(=O)N[C@@H](CCC(N)=O)C(=O)N[C@H](C(=O)N[C@@H](CC(C)C)C(=O)N[C@@H](C)C(=O)N[C@@H](CCC(N)=O)C(=O)N[C@H](C(N)=O)C(C)C)[C@@H](C)CC)[C@@H](C)CC)[C@@H](C)CC)C(C)C)C(C)C [compound 134] (H-IVLSLD[dV]PIKLK([AEEA-AEEA-γGlu-C18 diacid])QILLKQERQK[Aib]QREKAEKNKQILAQV-NH2; N-terminus assumed) |
